Where two headings read alike, the source gives them in different places.
Conditions: rcm bond

## CCOC(=O)[C@@H]1CC=CCCCCCc2ccccc2C(=O)N1
From C=CCCCCCc1ccccc1C(=O)N[C@@H](CC=C)C(=O)OCC, Grubbs 2nd generation catalyst, DCM, 8.31 mM, 50.0 °C, 14.0 h
  ring closure, yield of all isomers: 18.1%

## COC(=O)[C@@H]1Cc2ccc(cc2)CC=CCc2ccc3nn(cc3c2)-c2ncccc2C(=O)N1
From C=CCc1ccc(C[C@H](NC(=O)c2cccnc2-n2cc3cc(CC=C)ccc3n2)C(=O)OC)cc1, Zhan catalyst-1B, DCE, 3.09 mM, 90.0 °C, 14.0 h
  ring closure, yield of all isomers: 19.4%

## COC(=O)[C@@H]1Cc2ccc(cc2)CC=CCc2cccc(c2)-c2ccn(n2)-c2ncccc2C(=O)N1
From C=CCc1ccc(C[C@H](NC(=O)c2cccnc2-n2ccc(-c3cccc(CC=C)c3)n2)C(=O)OC)cc1, Hoveyda-Grubbs catalyst 1st generation, DCE, 4.94 mM, 90.0 °C, 64.0 h
  ring closure, yield of all isomers: 43.6%

## COC(=O)[C@@H]1Cc2ccc(cc2)OCC=CCOc2cccc(c2)-c2ccn(n2)-c2ncccc2C(=O)N1
From C=CCOc1ccc(C[C@H](NC(=O)c2cccnc2-n2ccc(-c3cccc(OCC=C)c3)n2)C(=O)OC)cc1, Grubbs II, 1,2-dichloroethane, 8.35 mM, 90.0 °C, 48.0 h
  ring closure, yield of all isomers: 47%

## CON(C)C(=O)[C@@H]1CC=CCCCCCc2ncccc2C(=O)N1
From C=CCCCCCc1ncccc1C(=O)N[C@@H](CC=C)C(=O)N(C)OC, Grubbs catalyst 2nd generation, DCE, 9.93 mM, 95.0 °C, 48.0 h
  ring closure, yield of all isomers: 65.1%

## CON(C)C(=O)[C@@H]1CC=CCCOc2ccnc(c2)-c2ccccc2C(=O)N1
From C=CCCOc1ccnc(-c2ccccc2C(=O)N[C@@H](CC=C)C(=O)N(C)OC)c1, Zhan Catalyst-1B, DCE, 2.87 mM, 95.0 °C, 16.0 h
  ring closure, yield of all isomers: 43.4%

## CON(C)C(=O)[C@@H]1CC=CCOCCOCc2ccccc2C(=O)N1
From C=CCOCCOCc1ccccc1C(=O)N[C@@H](CC=C)C(=O)N(C)OC, Grubbs 2nd generation catalyst, DCE, 6.64 mM, 80.0 °C, 10.0 h
  ring closure, yield of all isomers: 86.7%
From C=CCOCCOCc1ccccc1C(=O)N[C@@H](CC=C)C(=O)N(C)OC, Grubbs II, 1,2-dichloroethane, 6.64 mM, 80.0 °C, 10.0 h
  ring closure, yield of all isomers: 91.3%

Reference: patent US11292801B2, “Calpain modulators and therapeutic uses thereof” (Blade Therapeutics, Inc., priority 2016, dated 2022)
